As a reminder, the EC50 is the concentration at which the effect is half-maximal.

For this assay, the target named is T1, human GPR43 (Homo sapiens, UniProt O15552).
T1 construct: expressed in transfected cells
T1 sequence (O15552 1-330): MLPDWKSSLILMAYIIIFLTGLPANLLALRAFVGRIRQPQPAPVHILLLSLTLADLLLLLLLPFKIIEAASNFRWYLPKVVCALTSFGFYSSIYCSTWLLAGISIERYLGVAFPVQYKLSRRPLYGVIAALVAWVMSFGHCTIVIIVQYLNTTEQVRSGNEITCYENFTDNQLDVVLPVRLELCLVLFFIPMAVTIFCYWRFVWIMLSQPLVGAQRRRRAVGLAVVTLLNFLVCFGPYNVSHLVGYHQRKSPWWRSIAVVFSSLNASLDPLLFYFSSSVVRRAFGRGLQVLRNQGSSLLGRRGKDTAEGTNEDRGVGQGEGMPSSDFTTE
Nature of the assay: Ca-Flux Functional Assay: Determination of Agonist/Positive Allosteric Modulator (PAM) Activity. The class given is cell-based. The following applies: CHO-K1 Gα16 cells stably expressing human GPR43; compound added in the presence of EC20 sodium acetate; intracellular Ca2+ by FLIPR; agonist/PAM activity not distinguished. How it is done:
Ca-Flux Functional Assay: Determination of Agonist/Positive Allosteric Modulator (PAM) Activity
GPR43 agonist/PAM activity was determined by measuring changes in intracellular calcium levels using a Ca^2+ sensitive fluorescent dye. The changes in fluorescent signal were monitored by FLIPR (manufactured by Molecular Devices). GPR43 mediated increases in intracellular Ca^2+ concentration were readily detected upon activation with sodium acetate. Prior to the assay (24 hours), CHO-K1 Gα16 cells stably expressing human GPR43 were-seeded in cell culture medium in black, clear-bottom 384-well plates (Corning Inc) and grown overnight at 37° C., 5% CO2. On the day of the assay, cell culture media was removed and cells were loaded with Calcium 5 Dye (Molecular Devices) diluted in HBSS containing 25 mM HEPES, 2.5 mM Probenecid, 0.1% BSA for 1 hour at 37° C., 5% CO2. 10 point half log concentration response curves of sodium acetate from 10 mM were conducted prior to the testing of compounds to calculate the sodium acetate concentration that produces 20% of the maximal response (EC20). Test compounds (at to point half log concentration response curves from 10 μM) were added in the presence of sodium acetate to achieve a final concentration that produces approximately 20% maximal response as calculated from the previous experiment. The changes in fluorescent signal were monitored by FLIPR upon addition of the compound/EC20 sodium acetate mix. The EC50 values were determined from ten point concentration response curves. Curves were generated using the average of two wells for each data point.
The above assay detects both GPR43 receptor agonists and positive allosteric modulators of the GPR43 receptor, without distinguishing between the two. Activity in either regard is useful in the treatment of conditions associated with GPR43 receptor activity.
In the case of `CC1CN(S(=O)(=O)c2c(N)n(C3CCCCC3)c3nccnc23)CC(C)O1` (mixture of isomers) [Example 76, 5-cyclohexyl-7-(2,6-dimethylmorpholine-4-sulfonyl)-5H-pyrrolo[2,3-b]pyrazin-6-amine], the EC50 stood at 1.53 µM.

`Cc1ccc(S(=O)(=O)c2c(N)n(C3CCCCC3)c3ncccc23)cc1` [Example 11, 1-cyclohexyl-3-[(4-methylbenzene)sulfonyl]-1H-pyrrolo[2,3-b]pyridin-2-amine]: the EC50 was 0.753 µM.

In the case of `Nc1c(S(=O)(=O)NCC2CCCO2)c2nccnc2n1C1CCCCC1` (stereo not drawn) [Example 96, 6-amino-5-cyclohexyl-N-(oxolan-2-ylmethyl)-5H-pyrrolo[2,3-b]pyrazine-7-sulfonamide], the EC50 is 1.95 µM.

As for `COc1cccc(S(=O)(=O)c2c(N)n(C3CCCCC3)c3nccnc23)c1` [Example 112, 5-cyclohexyl-7-[(3-methoxybenzene)-sulfonyl]-5H-pyrrolo[2,3-b]pyrazin-6-amine], the EC50 was determined as 0.295 µM.

As for `Nc1c(S(=O)(=O)N2CCSCC2)c2nccnc2n1C1CCCCC1` [Example 78, 5-cyclohexyl-7-(thiomorpholine-4-sulfonyl)-5H-pyrrolo[2,3-b]pyrazin-6-amine], the concentration giving a half-maximal response (EC50) stood at 0.337 µM.

Take `Nc1c(S(=O)(=O)c2ccccc2)c2nccnc2n1C1CCCOC1` (stereo not drawn) [Example 51, 7-(phenylsulfonyl)-5-(tetrahydro-2H-pyran-3-yl)-5H-pyrrolo[2,3-b]pyrazin-6-amine]: the EC50 is 6 µM.

With `Nc1c(S(=O)(=O)c2ccccc2)c2cccnc2n1C1CCCCC1` [Example 15, 3-(benzenesulfonyl)-1-cyclohexyl-1H-pyrrolo[2,3-b]pyridin-2-amine], the EC50 is 0.381 µM.

With `CCCCn1c(N)c(S(=O)(=O)c2ccccc2)c2nccnc21` [Example 45, 5-butyl-7-5(phenylsulfonyl)-5H-pyrrolo[2,3-b]pyrazin-6-amine], the EC50 turned out to be 2.89 µM.

Take `Nc1c(S(=O)(=O)c2ccccc2)c2ccnnc2n1C1CCCCC1` [Example 28, 5-(benzenesulfonyl)-7-cyclohexyl-7H-pyrrolo[2,3-c]pyridazin-6-amine]: the EC50 came out at 0.707 µM.

For the compound `Nc1c(S(=O)(=O)N2CCC(CO)CC2)c2nccnc2n1C1CCCCC1` [Example 106, (1-{6-amino-5-cyclohexyl-5H-pyrrolo[2,3-b]pyrazine-7-sulfonyl}piperidin-4-yl)methanol], the EC50 was found to be 3.05 µM.

In the case of `Nc1c(S(=O)(=O)c2ccc(F)cc2)c2nccnc2n1C1CCCCC1` [Example 6, 5-cyclohexyl-7-[(4-fluorobenzene)sulfonyl]-5H-pyrrolo[2,3-b]pyrazin-6-amine], the EC50 is 0.301 µM.

Take `CCC1(Cn2c(N)c(S(=O)(=O)c3ccccc3)c3nccnc32)CC1` [Example 55, 5-((1-ethylcyclopropyl)-methyl)-7-(phenylsulfonyl)-5H-pyrrolo[2,3-b]pyrazin-6-amine]: the EC50 came out at 7.17 µM.

`CC1(C)CCCN(S(=O)(=O)c2c(N)n(C3CCCCC3)c3nccnc23)C1` [Example 92, 5-cyclohexyl-7-(3,3-dimethylpiperidine-1-sulfonyl)-5H-pyrrolo[2,3-b]pyrazin-6-amine]: the EC50 came out at 0.44 µM.

`Nc1c(S(=O)(=O)N2CCC(Cc3ccccc3)CC2)c2nccnc2n1C1CCCCC1` [Example 81, 7-(4-benzylpiperidine-1-sulfonyl)-5-cyclohexyl-5H-pyrrolo[2,3-b]pyrazin-6-amine]: the EC50 came out at 1.25 µM.

`COc1ncnc2c(S(=O)(=O)c3ccccc3)c(N)n(C3CCCC3)c12` [Example 35, 7-(benzenesulfonyl)-5-cyclopentyl-4-methoxy-5H-pyrrolo[3,2-d]pyrimidin-6-amine]: the EC50 is 1.86 µM.

Regarding `N#Cc1ccc(S(=O)(=O)c2c(N)n(C3CCCCC3)c3nccnc23)cc1` [Example 113, 4-{6-amino-5-cyclohexyl-5H-pyrrolo[2,3-b]pyrazine-7-sulfonyl}benzonitrile], the EC50 was 0.486 µM.

As to `Nc1c(S(=O)(=O)c2ccccc2F)c2nccnc2n1C1CCCCC1` [Example 111, 5-cyclohexyl-7-[(2-fluorobenzene)sulfonyl]-5H-pyrrolo[2,3-b]pyrazin-6-amine], the EC50 came to 0.209 µM.

Turning to `Nc1c(S(=O)(=O)N2CC(N3CCCCC3)C2)c2nccnc2n1C1CCCCC1` [Example 100, 5-cyclohexyl-7-[3-(piperidin-1-yl)azetidine-1-sulfonyl]-5H-pyrrolo[2,3-b]pyrazin-6-amine], the EC50 came out at 3.93 µM.

For the compound `Nc1c(S(=O)(=O)c2ccccc2)c2cnccc2n1C1CCCCC1` [Example 23, 3-(benzenesulfonyl)-1-cyclohexyl-1H-pyrrolo[3,2-c]pyridin-2-amine], the EC50 was found to be 1.05 µM.

With `Cc1ccc(S(=O)(=O)c2c(N)n(C3CCCC3)c3nccnc23)cc1` [Example 4, 5-cyclopentyl-7-[(4-methylbenzene)sulfonyl]-5H-pyrrolo[2,3-b]pyrazin-6-amine], the EC50 is 0.908 µM.

Take `Nc1c(S(=O)(=O)c2ccccc2)c2nccnc2n1CC1CCCC1` [Example 54, 5-(cyclopentylmethyl)-7-(phenylsulfonyl)-5H-pyrrolo[2,3-b]pyrazin-6-amine]: the EC50 is 1.54 µM.

For the compound `Nc1c(S(=O)(=O)c2ccc(Cl)cc2)c2nccnc2n1C1CCCCC1` [Example 5, 7-[(4-chlorobenzene)sulfonyl]-5-cyclohexyl-5H-pyrrolo[2,3-b]pyrazin-6-amine], the concentration giving a half-maximal response (EC50) was found to be 0.195 µM.

With `CCOC1CCN(S(=O)(=O)c2c(N)n(C3CCCCC3)c3nccnc23)CC1` [Example 65, 5-cyclohexyl-7-((4-ethoxypiperidin-1-yl)sulfonyl)-5H-pyrrolo[2,3-b]pyrazin-6-amine], the EC50 turned out to be 0.21 µM.

`Nc1c(S(=O)(=O)NCc2ccccc2)c2nccnc2n1C1CCCCC1` [Example 70, 6-amino-N-benzyl-5-cyclohexyl-5H-pyrrolo[2,3-b]pyrazine-7-sulfonamide]: the EC50 was 3.28 µM.

Turning to `CNc1ncnc2c(S(=O)(=O)c3ccccc3)c(N)n(C3CCC(F)(F)CC3)c12` [Example 33, 7-(benzenesulfonyl)-5-(4,4-difluorocyclohexyl)-4-N-methyl-5H-pyrrolo[3,2-d]pyrimidine-4,6-diamine], the EC50 stood at 2.72 µM.

Consider `Nc1c(S(=O)(=O)c2ccccc2)c2nccnc2n1CCc1ccccc1` [Example 46, 5-phenethyl-7-(phenylsulfonyl)-5H-pyrrolo[2,3-b]pyrazin-6-amine], for which the EC50 is 5.26 µM.

With `COC(=O)Nc1c(S(=O)(=O)c2ccccc2)c2nccnc2n1C1CCCCC1` [Example 24, methyl N-[7-(benzenesulfonyl)-5-cyclohexyl-5H-pyrrolo[2,3-b]pyrazin-6-yl]carbamate], the EC50 is 2.59 µM.

On to `Cc1ccc(S(=O)(=O)c2c(N)n(C3CCCC3)c3cccnc23)cc1` [Example 10, 1-cyclopentyl-3-[(4-methylbenzene)sulfonyl]-1H-pyrrolo[3,2-b]pyridin-2-amine], for which the EC50 stood at 2.3 µM.

For `Nc1c(S(=O)(=O)c2ccccc2)c2nccnc2n1CCC1CC1` [Example 48, 5-(2-cyclopropylethyl)-7-(phenylsulfonyl)-5H-pyrrolo[2,3-b]pyrazin-6-amine], the EC50 amounted to 3.26 µM.

For `Nc1c(S(=O)(=O)c2ccccc2)c2cc(Cl)nnc2n1C1CCCCC1` [Example 27, 5-(benzenesulfonyl)-3-chloro-7-cyclohexyl-7H-pyrrolo[2,3-c]pyridazin-6-amine], the EC50 was 0.277 µM.

The record behind these values is patent US20170369492A1 (Takeda Pharmaceutical Company Limited, priority 2014, published 2017).
